Where two headings read alike, the source gives them in different places.
Experiments:
[1] = tested on: store-operated calcium entry (SOCE); settings: read-out: IC50 for inhibition of calcium entry; HEK-Zeo control cells; thapsigargin-mediated store depletion followed by readdition of external calcium
Description: The relative cation permeability was assessed in HEK-Zeo and in HEK[STIM1] cells. Cells were loaded with Fluo-4 and treated with thapsigargin to discharge intracellular Ca^2+ stores (HEK-Zeo cells), or vehicle-treated (both HEK-Zeo and HEK[STIM1] cells). After 15 minutes, 10 mM BaCl2 (final concentration), 10 mM SrCl2 (final concentration), or 1.8 mM CaCl2 (final concentration) was added to elicit cation influx. To quantify the rate of cation influx, the first 30 seconds of data following cation addition was analyzed by linear regression.

[2] = tested on: store-operated calcium entry (SOCE); settings: read-out: IC50 for inhibition of calcium entry; HEK[STIM1] cells; thapsigargin-mediated store depletion followed by readdition of external calcium
Description: (§1) For stable cell lines overexpressing STIM1, pcDNA[STIM1/542-5] was transfected into 3×10^5 HEK293 cells using Effectene (QIAGEN) transfection reagent following the manufacturer's protocol. Forty-eight hours after transfection, cells were harvested and replated under selection with 250 μg/ml Zeocin (Invitrogen). Colonies were selected, amplified, and evaluated for expression of STIM1 mRNA and protein by RT-PCR and western blot, respectively. Limiting dilution of the STIM1 overexpressing colonies generated individual clones.

[3] = tested on: STIM1-induced Ca2+ entry; settings: HEK[STIM1] cells, absence of store depletion
Description: as §1

[4] = tested on: Jurkat T cells; assay: IL-2 secretion from Jurkat T cells (ELISA); type: cell-based, human; settings: Jurkat clone 4A5; 2.5 μg/ml PHA + 80 nM TPA for 20 hours
Text: To test this prediction, a stable Jurkat T cell line expressing a short hairpin siRNA to suppress expression of STIM1 was generated as follows. Oligonucleotides corresponding to the STIM1-1140 siRNA (sense oligo, 5′-GATCCCGGCTCTGGATACAGTGCTCTTCAAGAGAGAGCACTGTATCCAGAGCCTTTTTTGGAAA-3′ SEQ ID NO: 99; antisense oligo, 5′-AGCTTTTCCAAAAAAGGCTCTGGATACAGTGCTCTCTCTTGAAGAGCACTGTATCCAGAGCCGG-3′ SEQ ID NO: 100) were annealed and ligated into pSilencer 2.1-U6 neo (Ambion) according to the manufacturer's protocol. Correct inserts were verified by DNA sequencing. For the control, a non-silencing scrambled siRNA (Negative Control oligo; Ambion) was generated as above. 2×10^6 Jurkat T cells were electroporated with 5 μg plasmid using a Bio-Rad Gene Pulser (140V, 30 msec, 4 pulses). Two days after transfection, cells were harvested and resuspended in media containing G-418 selection at a concentration of 1×10^4 cells/ml. 1 ml of cells/well was plated in 24-well plates. […]
To measure IL-2 secretion from Jurkat T cells, cells were plated in a 96 well plate at a density of 1.5×10^5 cells/well. […] The media was collected and analyzed for IL-2 levels by ELISA (BioSource) according to the manufacturer's protocols. […]

Molecule: NCCOB(c1ccccc1)c1ccccc1 [2-APB, 2-aminoethoxydiphenyl borate]
- IC50 [1]: 11.8 µM
- IC50 [2]: 10.5 µM
- effect on calcium entry at lower concentrations ([3]; lower concentrations of 2-APB (biphasic effect)): potentiated
- IC50 ([3]; read-out: IC50 for inhibition of constitutive calcium entry): 10.8 µM

B1: STIM1-1140 short hairpin siRNA: Short hairpin siRNA corresponding to STIM1-1140, expressed from pSilencer 2.1-U6 neo in stable Jurkat clone 4A5 (nucleic acid)
chain 1: GATCCCGGCTCTGGATACAGTGCTCTTCAAGAGAGAGCACTGTATCCAGAGCCTTTTTTGGAAA
chain 2: AGCTTTTCCAAAAAAGGCTCTGGATACAGTGCTCTCTCTTGAAGAGCACTGTATCCAGAGCCGG
modifications: target site or template, no part of the molecule
- secretion of IL-2 upon stimulation [4]: completely blocked

— patent US7645588B2, “Composition comprising a cell comprising a STIM1 protein and an agent that modulates intracellular calcium and methods of use” (CalciMedica, Inc., priority 2003, dated 2010)
